Test [1] has as its target T1, Tyrosine-protein phosphatase non-receptor type 1 [1-301] (Homo sapiens, UniProt P18031).
T1 construct: 1-301
T1 sequence (P18031 whole entry): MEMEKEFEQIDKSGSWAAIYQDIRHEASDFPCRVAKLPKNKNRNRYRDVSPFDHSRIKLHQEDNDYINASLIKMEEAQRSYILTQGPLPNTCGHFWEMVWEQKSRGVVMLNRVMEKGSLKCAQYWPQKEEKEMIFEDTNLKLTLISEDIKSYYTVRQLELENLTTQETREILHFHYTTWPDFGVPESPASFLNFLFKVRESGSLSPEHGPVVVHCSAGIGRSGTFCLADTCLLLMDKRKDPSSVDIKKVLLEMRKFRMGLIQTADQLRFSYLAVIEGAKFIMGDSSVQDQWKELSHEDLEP
As to the kind of experiment: PTP1B Inhibition Assay. Here is the method: Kinetic parameters were determined by fitting the reaction rates to different inhibition models as a function of the inhibitor and pNPP concentrations using GraphPad Prism version 6.0d. The total reaction volume in all cases was 500 μL, and the temperature was maintained at 25 °C using a water-regulated cuvette holder.

Test [2] has as its target T1, Tyrosine-protein phosphatase non-receptor type 1 [1-301]. As to the kind of experiment: NMR Chemical Shift Titration Assay.

Consider `O=C(/C=C/c1ccc(O)c(O)c1)O[C@@H](C(=O)O)[C@@H](OC(=O)/C=C/c1ccc(O)c(O)c1)C(=O)O` [Cichoric acid (CHA)], for which, in test [1], the Ki is 1400 µM. In addition, the Kd in test [2] came out at 1600 µM.

The values are drawn from BindingDB's records for doi:10.1021/acs.biochem.6b01025 (Washington College, 2017).
